The assay has as its target T1, SFRP-1 (Homo sapiens, UniProt Q8N474).
T1 sequence (Q8N474 32-314): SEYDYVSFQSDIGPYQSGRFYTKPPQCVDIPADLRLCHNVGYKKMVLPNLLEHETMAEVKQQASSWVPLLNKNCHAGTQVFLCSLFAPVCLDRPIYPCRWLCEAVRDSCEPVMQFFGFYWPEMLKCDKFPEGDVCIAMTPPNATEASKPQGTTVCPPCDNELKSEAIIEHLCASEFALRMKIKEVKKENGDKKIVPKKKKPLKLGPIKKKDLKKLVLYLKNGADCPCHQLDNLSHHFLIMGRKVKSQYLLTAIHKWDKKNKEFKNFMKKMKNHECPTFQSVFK
Put plainly: Cell-based assay for in vitro measurement of SFRP-1/SARP2 antagonist activity (U2OS cells co-transfected with 16x TCF-tk-Luciferase reporter, Wnt and hSFRP-1).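 Note: U2OS cells co-transfected with a TCF-tk luciferase reporter, a Wnt vector, hSFRP-1 or empty vector and CMV-βgal, luciferase luminescence read in cell lysates alongside βgal activity.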 The note with it: U2OS. On the technique in general: A reporter such as luciferase makes a cellular process visible.

Setting [1] is: read-out: Fold Induction with SFRP-1, Conc 30 μM, with SFRP-1, fold induction over SFRP-1 control, single dose.
[2] abbreviates: read-out: Fold Induction without SFRP-1, Conc 30 μM, without SFRP-1, single dose.
Setting [3] is: read-out: Fold Induction with SFRP-1, Conc 15 μM, with SFRP-1, fold induction over SFRP-1 control, single dose.
The mark [4] stands for this setting: read-out: Fold Induction without SFRP-1, Conc 15 μM, without SFRP-1, single dose.

Like-named read-outs stand apart in the source and are kept apart here.

With `CN1CCN(CCCNS(=O)(=O)c2cccc(S(=O)(=O)c3ccccc3)c2)CC1` [Example 201, N-[3-(4-methylpiperazin-1-yl)propyl]-3-(phenylsulfonyl)benzenesulfonamide], the fold induction at 30 µM is, setting by setting: under setting [1], 1.1; under setting [2], 1.2.

With `O=C(O)CCNS(=O)(=O)c1cccc(S(=O)(=O)c2ccccc2)c1` [Example 202, N-{[3-(phenylsulfonyl)phenyl]sulfonyl)-beta-alanine], the fold induction at 30 µM by setting is: under setting [1], 1.1; under setting [2], 1.2.

For the compound `Cc1ccc(S(=O)(=O)c2ccccc2)cc1S(=O)(=O)NCCC(N)=O` [Example 203, N^3-{[2-methyl-5-(phenylsulfonyl)phenyl]sulfonyl}-beta-alaninamide], the fold induction at 15 µM was 2.5 under setting [3] and 1.3 under setting [4].

`Cc1ccc(S(=O)(=O)c2ccccc2)cc1S(=O)(=O)NCCCN1CCOCC1` [Example 206, 2-methyl-N-(3-morpholin-4-ylpropyl)-5-(phenylsulfonyl)benzenesulfonamide]: the fold induction at 15 µM stood at 2.2 under setting [3] and 0.5 under setting [4].

For `Cc1ccc(S(=O)(=O)c2ccccc2)cc1S(=O)(=O)NCCC1CCCN1C` (centres unmarked) [Example 207, 2-methyl-N-[2-(1-methylpyrrolidin-2-yl)ethyl]-5-(phenylsulfonyl)benzenesulfonamide], the fold induction at 15 µM was 2.3 under setting [3] and 1.1 under setting [4].

In the case of `Cc1ccc(S(=O)(=O)c2ccccc2)cc1S(=O)(=O)NCCc1ccncc1` [Example 208, 2-methyl-5-(phenylsulfonyl)-N-(2-pyridin-4-ylethyl)benzenesulfonamide], the fold induction at 15 µM was found to be 2.6 under setting [3] and 0.9 under setting [4].

For the compound `Cc1ccc(S(=O)(=O)c2ccccc2)cc1S(=O)(=O)NCCN1CCCCC1` [Example 209, 2-methyl-5-(phenylsulfonyl)-N-(2-piperidin-1-ylethyl)benzenesulfonamide], the fold induction at 15 µM was 2.2 under setting [3] and 1.3 under setting [4].

Consider `Cc1ccc(S(=O)(=O)c2ccccc2)cc1S(=O)(=O)NCCc1c[nH]cn1` [Example 210, N-[2-(1H-imidazol-4-yl)ethyl]-2-methyl-5-(phenylsulfonyl)benzenesulfonamide], for which the fold induction at 15 µM under setting [3] turned out to be 2.5 and the fold induction at 15 µM under setting [4] was 1.

As to `Cc1ccc(S(=O)(=O)c2ccccc2)cc1S(=O)(=O)NCCN1CCOCC1` [Example 211, 2-methyl-N-(2-morpholin-4-ylethyl)-5-(phenylsulfonyl)benzenesulfonamide], the fold induction at 15 µM is, setting by setting: under setting [3], 2.3; under setting [4], 0.7.

In the case of `Cc1ccc(S(=O)(=O)c2ccccc2)cc1S(=O)(=O)NCCCN1CCCC1=O` [Example 212, 2-methyl-N-[3-(2-oxopyrrolidin-1-yl)propyl]-5-(phenylsulfonyl)benzenesulfonamide], the fold induction at 15 µM under setting [3] is 2 and the fold induction at 15 µM under setting [4] was 0.9.

`CCN(CC)CCNS(=O)(=O)c1cc(S(=O)(=O)c2ccccc2)ccc1C` [Example 213, N-[2-(diethylamino)ethyl]-2-methyl-5-(phenylsulfonyl)benzenesulfonamide]: the fold induction at 15 µM under setting [3] came out at 1.8 and the fold induction at 15 µM under setting [4] worked out at 1.3.

Take `Cc1ccc(S(=O)(=O)c2ccccc2)cc1S(=O)(=O)NCCN(C)C` [Example 214, N-[2-(dimethylamino)ethyl]-2-methyl-5-(phenylsulfonyl)benzenesulfonamide]: the fold induction at 15 µM is, setting by setting: under setting [3], 3.2; under setting [4], 1.5.

For `COCCCNS(=O)(=O)c1cc(S(=O)(=O)c2ccccc2)ccc1C` [Example 215, N-(3-methoxypropyl)-2-methyl-5-(phenylsulfonyl)benzenesulfonamide], the fold induction at 15 µM reads like this: under setting [3], 2.9; under setting [4], 1.

With `Cc1ccc(S(=O)(=O)c2ccccc2)cc1S(=O)(=O)NCCCN(C)C` [Example 216, N-[3-(dimethylamino)propyl]-2-methyl-5-(phenylsulfonyl)benzenesulfonamide], the fold induction at 15 µM stood at 3.6 under setting [3] and 1.3 under setting [4].

`COCCNS(=O)(=O)c1cc(S(=O)(=O)c2ccccc2)ccc1C` [Example 217, N-(2-methoxyethyl)-2-methyl-5-(phenylsulfonyl)benzenesulfonamide]: the fold induction at 15 µM is, setting by setting: under setting [3], 2.5; under setting [4], 1.

As to `CCN(CC)CCCNS(=O)(=O)c1cc(S(=O)(=O)c2ccccc2)ccc1C` [Example 218, N-[3-(diethylamino)propyl]-2-methyl-5-(phenylsulfonyl)benzenesulfonamide], the fold induction at 15 µM stood at 2.2 under setting [3] and 1.2 under setting [4].

As to `Cc1ccc(S(=O)(=O)c2ccccc2)cc1S(=O)(=O)NCCCN1CCCC1` [Example 220, 2-methyl-5-(phenylsulfonyl)-N-(3-pyrrolidin-1-ylpropyl)benzenesulfonamide], the fold induction at 15 µM by setting is: under setting [3], 3.6; under setting [4], 1.8.

For `Cc1ccc(S(=O)(=O)c2ccccc2)cc1S(=O)(=O)NCCCN1CCN(C)CC1` [Example 221, 2-methyl-N-[3-(4-methylpiperazin-1-yl)propyl]-5-(phenylsulfonyl)benzenesulfonamide], the fold induction at 15 µM by setting is: under setting [3], 3; under setting [4], 1.2.

On to `CCc1ccc(S(=O)(=O)c2ccccc2)cc1S(=O)(=O)NCCC(=O)OC` [Example 222, methyl N-{[2-ethyl-5-(phenylsulfonyl)phenyl]sulfonyl}-beta-alaninate], for which the fold induction at 15 µM is, setting by setting: under setting [3], 2.4; under setting [4], 0.9.

Consider `CCc1ccc(S(=O)(=O)c2ccccc2)cc1S(=O)(=O)NCCc1c[nH]cn1` [Example 225, 2-ethyl-N-[2-(1H-imidazol-4-yl)ethyl]-5-(phenylsulfonyl)benzenesulfonamide], for which the fold induction at 15 µM under setting [3] is 3.1 and the fold induction at 15 µM under setting [4] is 0.9.

As to `CCc1ccc(S(=O)(=O)c2ccccc2)cc1S(=O)(=O)NCCOC` [Example 229, 2-ethyl-N-(2-methoxyethyl)-5-(phenylsulfonyl)benzenesulfonamide], the fold induction at 15 µM under setting [3] was 2.6 and the fold induction at 15 µM under setting [4] amounted to 0.8.

In the case of `CCc1ccc(S(=O)(=O)c2ccccc2)cc1S(=O)(=O)NCCCN1CCCC1` [Example 232, 2-ethyl-5-(phenylsulfonyl)-N-(3-pyrrolidin-1-ylpropyl)benzenesulfonamide], the fold induction at 15 µM under setting [3] turned out to be 4.2 and the fold induction at 15 µM under setting [4] came to 1.6.

`COC(=O)CCNS(=O)(=O)c1cc(S(=O)(=O)c2ccccc2)ccc1OC` [Example 233, methyl N-{[2-methoxy-5-(phenylsulfonyl)phenyl]sulfonyl}-beta-alaninate]: the fold induction at 15 µM came to 1.5 under setting [3] and 1 under setting [4].

For `COc1ccc(S(=O)(=O)c2ccccc2)cc1S(=O)(=O)NCCc1ccccn1` [Example 234, 2-methoxy-5-(phenylsulfonyl)-N-(2-pyridin-2-ylethyl)benzenesulfonamide], the fold induction at 15 µM was determined as 1.2 under setting [3] and 1 under setting [4].

In the case of `COc1ccc(S(=O)(=O)c2ccccc2)cc1S(=O)(=O)NCCc1ccncc1` [Example 235, 2-methoxy-5-(phenylsulfonyl)-N-(2-pyridin-4-ylethyl)benzenesulfonamide], the fold induction at 15 µM reads like this: under setting [3], 1.2; under setting [4], 0.9.

The values are drawn from patent US20060276464A1, “Diarylsulfone sulfonamides and use thereof” (Wyeth, priority 2005, published 2006).
